This passage reports IC50 results from patent US11377438B2, “2-amino-n-heteroaryl-nicotinamides as Nav1.8 inhibitors” (Merck Sharp & Dohme Corp., priority 2018, dated 2022).

A word on the IC50: it is the midpoint of a concentration-inhibition curve.

Chain of human Nav1.8 (Q9Y5Y9 whole entry): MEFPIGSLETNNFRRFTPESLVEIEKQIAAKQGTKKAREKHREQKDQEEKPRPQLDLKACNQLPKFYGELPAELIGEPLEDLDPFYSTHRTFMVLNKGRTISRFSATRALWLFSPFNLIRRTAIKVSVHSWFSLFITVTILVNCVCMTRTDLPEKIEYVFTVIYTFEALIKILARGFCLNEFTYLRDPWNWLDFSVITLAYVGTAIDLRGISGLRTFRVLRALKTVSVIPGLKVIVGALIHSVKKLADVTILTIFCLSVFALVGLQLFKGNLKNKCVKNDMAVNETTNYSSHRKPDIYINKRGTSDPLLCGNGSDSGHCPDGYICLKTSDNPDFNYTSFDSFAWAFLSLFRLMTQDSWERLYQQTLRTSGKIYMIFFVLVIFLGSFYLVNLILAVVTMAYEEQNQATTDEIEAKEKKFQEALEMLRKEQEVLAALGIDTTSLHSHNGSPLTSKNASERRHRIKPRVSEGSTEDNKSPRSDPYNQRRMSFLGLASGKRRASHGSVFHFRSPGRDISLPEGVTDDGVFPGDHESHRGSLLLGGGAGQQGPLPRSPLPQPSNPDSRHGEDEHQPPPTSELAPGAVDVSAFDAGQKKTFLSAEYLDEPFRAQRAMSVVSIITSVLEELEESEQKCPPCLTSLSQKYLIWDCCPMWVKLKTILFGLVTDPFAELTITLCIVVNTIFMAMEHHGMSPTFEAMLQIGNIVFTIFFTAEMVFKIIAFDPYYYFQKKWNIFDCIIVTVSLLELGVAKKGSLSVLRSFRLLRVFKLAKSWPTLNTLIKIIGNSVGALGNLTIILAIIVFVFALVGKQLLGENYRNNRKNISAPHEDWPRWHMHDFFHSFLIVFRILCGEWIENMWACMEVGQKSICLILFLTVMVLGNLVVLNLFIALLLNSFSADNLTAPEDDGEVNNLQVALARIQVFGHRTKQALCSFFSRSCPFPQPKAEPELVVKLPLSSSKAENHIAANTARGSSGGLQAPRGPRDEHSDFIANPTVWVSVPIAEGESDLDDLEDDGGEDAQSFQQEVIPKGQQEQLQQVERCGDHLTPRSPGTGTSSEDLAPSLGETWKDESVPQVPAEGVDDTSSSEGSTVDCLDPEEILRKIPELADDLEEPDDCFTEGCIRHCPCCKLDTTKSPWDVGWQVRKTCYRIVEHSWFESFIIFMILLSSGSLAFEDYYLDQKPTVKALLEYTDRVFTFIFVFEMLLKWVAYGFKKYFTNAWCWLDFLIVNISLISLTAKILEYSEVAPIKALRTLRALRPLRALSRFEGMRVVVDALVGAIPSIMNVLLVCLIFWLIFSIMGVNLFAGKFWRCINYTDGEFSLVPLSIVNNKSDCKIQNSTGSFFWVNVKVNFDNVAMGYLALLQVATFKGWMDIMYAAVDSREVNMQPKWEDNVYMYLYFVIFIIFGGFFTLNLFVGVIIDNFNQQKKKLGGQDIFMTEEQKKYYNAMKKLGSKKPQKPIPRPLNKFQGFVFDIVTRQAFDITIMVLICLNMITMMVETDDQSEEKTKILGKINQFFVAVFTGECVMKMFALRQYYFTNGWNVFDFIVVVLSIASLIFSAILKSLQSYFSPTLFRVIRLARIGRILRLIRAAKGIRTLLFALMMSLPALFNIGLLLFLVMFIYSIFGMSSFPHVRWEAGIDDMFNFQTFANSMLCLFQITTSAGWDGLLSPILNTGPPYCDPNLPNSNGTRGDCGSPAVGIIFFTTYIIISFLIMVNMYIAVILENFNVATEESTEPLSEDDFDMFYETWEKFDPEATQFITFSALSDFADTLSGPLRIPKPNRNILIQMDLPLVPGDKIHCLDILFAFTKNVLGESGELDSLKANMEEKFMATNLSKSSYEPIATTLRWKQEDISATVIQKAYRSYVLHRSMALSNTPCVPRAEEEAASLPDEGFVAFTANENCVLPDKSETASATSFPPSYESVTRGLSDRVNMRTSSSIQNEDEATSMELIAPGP

This assay has as its target human Nav1.8 (Homo sapiens (Human), UniProt Q9Y5Y9). Put plainly: Nav1.8 Qube automated patch-clamp assay. The format is cell-based. Particulars: human Nav1.8 stably expressed in HEK 293 cells, whole-cell voltage clamp, room temperature; read-out: IC50 (nM) in the Nav 1.8 Qube Assay. Here is the method: Qube® Assay Experimental Procedure Compounds were tested on human Nav1.8 and Nav1.5 channels stably expressed in human embryo kidney (HEK) 293 cells. Sodium current measurements on Qube® were conducted as follows: automated 384-well patch-clamp assays on the Qube® platform (Sophion Biosciences) were used to measure the inhibition of sodium flow through human Nav1.8 and Nav1.5 channels. Whole-cell voltage-clamp recordings were performed in QChips® (Sophion Biosciences) at room temperature. Nav1.8 current measurements on Qube® were obtained as follows: Nav1.8 currents were elicited with a 10 second 1 Hertz (Hz) pulse train from a holding potential of −90 millivolts (mV), delivered to the cells once per minute in the control condition (DMSO only) and after compound addition. The 1 hertz pulse train stimulation consisted often test pulses to 10 millivolt (mV) for 20 milliseconds (ms), each of which was followed by a 980 millisecond repolarization to −67 millivolts. At the end of the 10 second pulse train stimulation, a 5 second hyperpolarization step to −100 millivolt (mV) was used to recover Nav1.8 from fast inactivation. The peak currents elicited by the 1st and 10th test pulses were used to determine IC50 values for resting inhibition and inactivated state inhibition. Nav1.5 current measurements on Qube® were obtained as follows: Nav1.5 currents were elicited with a 20 second 3 Hertz pulse train in the control condition (DMSO only) and after compound addition. The pulse train consisted of sixty 20 millisecond test pulses to 0 millivolt from a holding potential of −80 millivolt (mV). The average peak currents elicited by the last 3 test pulses were used to determine IC50 values for Nav1.5 inhibition.
The following buffers were used for the Qube® recordings: External buffer for Nav1.8 Qube® recording: 150 NaCl, 2 CaCl2, 5 KCl, 1 Mg Cl2, 10 HEPES, 12 Dextrose; External buffer for Qube® Nav1.5 recording: 120 N-Methyl-D-Glucamine, 40 NaCl, 1 KCl, 2.7 CaCl2), 5 HEPES, 0.5 MgCl2; and Internal buffer for Qube® recording: 120 CsF, 30 CsCl, 10 EGTA, 5 HEPES, 5 NaF, 2 MgCl2.
For all Qube® experiments offline analysis was used to determine percent inhibition as a function of drug concentration. IC50 values were determined by fitting to the Hill equation.
Background: The patch-clamp technique gives a direct electrical read-out from membranes.
In the case of `C[C@@H]1CN(c2ncc(C(F)(F)F)cc2C(=O)Nc2ccnc(C(N)=O)c2)C[C@H](C)C1(F)F` [Example 156, 4-(2-((3S,5R)-4,4-difluoro-3,5-dimethylpiperidin-1-yl)-5 (trifluoromethyl)nicotinamido)picolinamide], the half-maximal inhibitory concentration (IC50) was 58 nM.

For `C[C@@H]1CN(c2ncc(C(F)(F)F)cc2C(=O)Nc2ccnc(S(C)(=O)=O)c2)C[C@H](C)C1(F)F` [Example 147, 2-((3S,5R)-4,4-difluoro-3,5-dimethylpiperidin-1-yl)-N-(2-(methylsulfonyl)pyridin-4-yl)-5-(trifluoromethyl)nicotinamide], the half-maximal inhibitory concentration (IC50) worked out at 22 nM.

For the molecule `C[C@@H]1CN(c2nc(C3CCC3)ccc2C(=O)Nc2ccnc(S(N)(=O)=O)c2)C[C@H](C)C1(F)F` [Example 166, 6-cyclobutyl-2-((3S,5R)-4,4-difluoro-3,5-dimethylpiperidin-1-yl)-N-(2-sulfamoylpyridin-4-yl)nicotinamide], the IC50 came out at 13 nM.

For `Cc1nc(N2CCC(F)(F)CC2)c(C(=O)Nc2ccnc(S(N)(=O)=O)c2)cc1C1CCC1` [Example 15, 5-cyclobutyl-2-(4,4-difluoropiperidin-1-yl)-6-methyl-N-(2-sulfamoylpyridin-4-yl)nicotinamide], the IC50 is 6.5 nM.

Regarding `NS(=O)(=O)c1cc(NC(=O)c2cc(CC3CC3)cnc2N2CCCC(F)(F)CC2)ccn1` [Example 46, 5-(cyclopropylmethyl)-2-(4,4-difluoroazepan-1-yl)-N-(2-sulfamoylpyridin-4-yl)nicotinamide], the IC50 worked out at 1 nM.

Consider `Cc1cc(C(=O)Nc2ccnc(S(N)(=O)=O)c2)c(N2CCCC(F)(F)CC2)nc1C` [Example 19, 2-(4,4-difluoroazepan-1-yl)-5,6-dimethyl-N-(2-sulfamoylpyridin-4-yl)nicotinamide], for which the half-maximal inhibitory concentration (IC50) was found to be 1.6 nM.

Consider `C[C@@H]1CN(c2nc(C3CCC3)c(Cl)cc2C(=O)Nc2ccnc(S(N)(=O)=O)c2)C[C@H](C)C1(F)F` [Example 169, 5-chloro-6-cyclobutyl-2-((3S,5R)-4,4-difluoro-3,5-dimethylpiperidin-1-yl)-N-(2-sulfamoylpyridin-4-yl)nicotinamide], for which the IC50 is 6.9 nM.

As to `C[C@@H]1CN(c2nc(C3CCC3)ccc2C(=O)Nc2ccnc(S(N)(=O)=O)c2)C[C@@H](C(F)(F)F)O1` (single isomer, unassigned) [Example 167, 6-cyclobutyl-2-((2R,6S or 2S,6R)-2-methyl-6-(trifluoromethyl)morpholino)-N-(2-sulfamoylpyridin-4-yl)nicotinamide], the concentration for half-maximal inhibition (IC50) is 52 nM.

On to `CC1CN(c2ncc(C(F)(F)F)cc2C(=O)Nc2ccnc(S(N)(=O)=O)c2)CCC(C(F)(F)F)O1` (single isomer, unassigned) [Example 121, 2-((2R,7S or 2S.7R)-2-methyl-7-(trifluoromethyl)-1,4-oxazepan-4-yl)-N-(2-sulfamoylpyridin-4-yl)-5-(trifluoromethyl)nicotinamide], for which the IC50 stood at 58 nM.

Consider `CC[C@H]1CN(c2ncc(C(F)(F)F)cc2C(=O)Nc2ccnc(S(N)(=O)=O)c2)C[C@H](C(F)(F)F)O1` (single isomer, unassigned) [Example 134, 2-((2S,6R or 2R,6S)-2-ethyl-6-(trifluoromethyl)morpholino)-N-(2-sulfamoylpyridin-4-yl)-5-(trifluoromethyl)nicotinamide], for which the IC50 is 155 nM.

`NS(=O)(=O)c1cc(NC(=O)c2cc(OC(F)(F)F)cnc2N2CCCC(F)(F)CC2)ccn1` [Example 177, 2-(4,4-difluoroazepan-1-yl)-N-(2-sulfamoylpyridin-4-yl)-5-(trifluoromethoxy)nicotinamide]: the IC50 is 2.8 nM.

Consider `Cc1nc(N2C[C@@H](C)C(F)(F)[C@@H](C)C2)c(C(=O)Nc2ccnc(S(N)(=O)=O)c2)cc1Cl` [Example 53, 5-chloro-2-[(3S,5R)-4,4-difluoro-3,5-dimethyl-1-piperidyl]-6-methyl-N-(2-sulfamoyl-4-pyridyl)pyridine-3-carboxamide], for which the IC50 is 0.8 nM.

For `Cc1nc(N2CCC(F)(F)CC2)c(C(=O)Nc2ccnc(S(N)(=O)=O)c2)cc1C#CC1CC1` [Example 16, 5-(cyclopropylethynyl)-2-(4,4-difluoropiperidin-1-yl)-6-methyl-N-(2-sulfamoylpyridin-4-yl)nicotinamide], the IC50 came to 12 nM.

For `Cc1ccc(C(=O)Nc2ccnc(S(N)(=O)=O)c2)c(N2CCCC(F)(F)CC2)n1` [Example 17, 2-(4,4-difluoroazepan-1-yl)-6-methyl-N-(2-sulfamoylpyridin-4-yl)nicotinamide], the half-inhibitory concentration (IC50) was found to be 3.1 nM.

On to `C[C@H]1CN(c2nc(C3CCC3)c(Cl)cc2C(=O)Nc2ccnc(S(N)(=O)=O)c2)C[C@H](C(F)(F)F)O1` (single isomer, unassigned) [Example 161, 5-chloro-6-cyclobutyl-2-((2S,6R or 2R,6S)-2-methyl-6-(trifluoromethyl)morpholino)-N-(2-sulfamoylpyridin-4-yl)nicotinamide], for which the IC50 worked out at 63 nM.

On to `O=C(Nc1cnn(S(=O)(=O)C2CC2)c1)c1cc(C(F)(F)F)cnc1N1CCCC(F)(F)CC1` [Example 36, N-[1-(cyclopropylsulfonyl)-1H-pyrazol-4-yl]-2-(4,4-difluoroazepan-1-yl)-5-(trifluoromethyl)pyridine-3-carboxamide], for which the IC50 stood at 147 nM.

For `NS(=O)(=O)c1cc(NC(=O)c2cc(Cl)c(C3CCC3)nc2N2CCCC(F)(F)CC2)ccn1` [Example 23, 5-chloro-6-cyclobutyl-2-(4,4-difluoroazepan-1-yl)-N-(2-sulfamoylpyridin-4-yl)nicotinamide], the IC50 turned out to be 2.6 nM.

For the molecule `C[C@@H]1CN(c2nc(C3CCC3)c(Cl)cc2C(=O)Nc2ccnc(S(N)(=O)=O)c2)C[C@@H](C(F)(F)F)O1` (single isomer, unassigned) [Example 160, 5-chloro-6-cyclobutyl-2-((2R,6S or 2S,6R)-2-methyl-6-(trifluoromethyl)morpholino)-N-(2-sulfamoylpyridin-4-yl)nicotinamide], the IC50 worked out at 9.2 nM.

Regarding `NS(=O)(=O)c1cc(NC(=O)c2ccc(C3CC3)nc2N2CCCC(F)(F)CC2)ccn1` [Example 22, 6-cyclopropyl-2-(4,4-difluoroazepan-1-yl)-N-(2-sulfamoylpyridin-4-yl)nicotinamide], the 50% inhibitory concentration (IC50) stood at 3 nM.

As for `Cc1nc(N2CCCC(F)(F)CC2)c(C(=O)Nc2ccnc(S(N)(=O)=O)c2)cc1C(F)(F)F` [Example 184, 2-(4,4-difluoroazepan-1-yl)-6-methyl-N-(2-sulfamoylpyridin-4-yl)-5-(trifluoromethyl)nicotinamide], the half-maximal inhibitory concentration (IC50) worked out at 0.5 nM.

Regarding `Cc1nc(N2CCCC(F)(F)CC2)c(C(=O)Nc2ccnc(S(N)(=O)=O)c2)cc1Cl` [Example 172, 5-chloro-2-(4,4-difluoroazepan-1-yl)-6-methyl-N-(2-sulfamoylpyridin-4-yl)nicotinamide], the concentration for half-maximal inhibition (IC50) amounted to 0.3 nM.

On to `NS(=O)(=O)c1cc(NC(=O)c2ccc(CC3CC3)nc2N2CCCC(F)(F)CC2)ccn1` [Example 18, 6-(cyclopropylmethyl)-2-(4,4-difluoroazepan-1-yl)-N-(2-sulfamoylpyridin-4-yl)nicotinamide], for which the IC50 worked out at 0.9 nM.

In the case of `NS(=O)(=O)c1cc(NC(=O)c2cc(Cl)c(C3CC3)nc2N2CCCC(F)(F)CC2)ccn1` [Example 21, 5-chloro-6-cyclopropyl-2-(4,4-difluoroazepan-1-yl)-N-(2-sulfamoylpyridin-4-yl)nicotinamide], the IC50 turned out to be 4.5 nM.
